Several values for one entry are separate records, joined by “and”; a condition that tells them apart may be missing. Equal values may be shown once. Read-outs that look alike come from different tables or passages of the source.
Experiments:
PBRM1-BD2 [1] = target: T1, PBRM1-BD2 (Homo sapiens (Human), UniProt Q86U86); test: AlphaScreen competition assay, His6-tagged PBRM1-BD2 and biotinylated H3K14ac peptide; assay type: binding; conditions: 0.2 μM His6-PBRM1-BD2, 0.1 μM biotinylated H3K14ac peptide
PBRM1-BD2 [2] = target: T1, PBRM1-BD2; conditions: read-out: Kd PBRM1-BD2; ITC; NB = did not bind (heat below 0.1 μcal per second)
Procedure: (§3) Binding affinities of inhibitors towards PBRM1-BD2, PBRM1-BD5, SMARCA2, SMARCA4, and ASH1L were determined using a VP-ITC instrument (MicroCal). […] Protein concentrations were determined via the method of Bradford.^1 The buffer used for all ITC experiments consisted of 50 mM HEPES (pH 7.5 at 20° C.), 500 mM NaCl, 5% v/v glycerol, and 1% v/v DMSO; except for experiments involving PBRM1-BD2 whose buffer consisted of 100 mM Na2PO4 (pH 7.5 at 20° C.), 100 mM NaCl, 5% v/v glycerol, and 1% v/v DMSO. Kd values were determined by least-squares fitting to the raw data using Origin (OriginLab).

PBRM1-BD2 [3] = target: T1, PBRM1-BD2; test: biochemical; assay type: binding
Procedure: Protein-detected NMR-based fragment screening has the advantage of providing information about both binding affinity and the amino acid residues involved in binding.
NMR spectroscopy. Automated NMR data collection was performed on ^15N-labeled PBRM1-BD2 (50 μM) by using ^1H,^15N SOFAST-HMQC experiments. […] The total time for screening 85 or 82 samples each containing 12 fragments or DMSO by ^1H,^15N SOFAST-HMQC was 46 h (˜32 min/sample). […] All NMR data were processed using NMRPipe^4 in NMRbox.^5 Spectra were processed by using in-house automated Python scripts in NMRPipe,^4 and chemical shifts perturbation were analyzed using SPARKY.^6 Total ^1H/^15N chemical shift perturbations and equilibrium dissociation constants (Kd) were calculated as reported.^2

PBRM1-BD2 [4] = target: T1, PBRM1-BD2; test: biochemical; assay type: binding; conditions: for ΔTm at 100 µM: read-out: PBRM1-BD2 ΔTm, DSF, 10 μM protein, 100 μM inhibitor, vs apoprotein; for PBRM1-BD2 ΔTm: DSF, 10 μM protein, 100 μM inhibitor, vs apoprotein
Procedure: DSF measures protein unfolding by monitoring the fluorescence of the SYPRO Orange dye as a function of temperature; positive thermal shifts indicate ligand binding induced stabilization of the protein.
(§1) Differential Scanning Fluorimetry (DSF). Bromodomain DSF Tm assays were performed using an Mx3005P (Stratagene) PCR detection system and low profile 96-well PCR plates (UltraFlux, Flat Top, SSI 3400-00S). […] The temperature was raised by 1° C./min from 25-95° C., and fluorescence readings were taken at each interval. Melting curves were analyzed using our online interactive fitting tool for thermofluor experiments (https://dsf-analysis.herokuapp.com/DSF-analysis) and plotted using GraphPad Prism.

PBRM1-BD5 [5] = target: T2, PBRM1-BD5 (Homo sapiens (Human), UniProt Q86U86); conditions: read-out: Kd PBRM1-BD5; ITC; NB = did not bind
Procedure: as §3

PBRM1-BD5 [6] = target: T2, PBRM1-BD5; conditions: DSF
PBRM1-BD4 = PBRM1-BD4 (Homo sapiens (Human), UniProt Q86U86); test: DSF selectivity profiling; assay type: binding
Procedure: as §1

SMARCA2 [7] = target: T3, SMARCA2 (Homo sapiens (Human), UniProt P51531); test: DSF selectivity profiling; assay type: binding
Procedure: as §1

CREBBP = CREBBP (Homo sapiens (Human), UniProt Q92793); test: DSF selectivity profiling; assay type: binding
Procedure: as §1

BRD3-BD2 = BRD3-BD2 (Homo sapiens (Human), UniProt Q15059); test: DSF selectivity profiling; assay type: binding
Procedure: as §1

PCAF = PCAF (Homo sapiens (Human), UniProt Q92831); test: DSF selectivity profiling; assay type: binding
Procedure: as §1

BRD3-BD1 = BRD3-BD1 (Homo sapiens (Human), UniProt Q15059); test: DSF selectivity profiling; assay type: binding
Procedure: as §1

SMARCA4 [8] = target: T4, SMARCA4 (Homo sapiens (Human), UniProt P51532); test: DSF selectivity profiling; assay type: binding
Procedure: as §1

BRD2-BD2 = BRD2-BD2 (Homo sapiens (Human), UniProt P25440); test: DSF selectivity profiling; assay type: binding
Procedure: as §1

PBRM1-BD1 = PBRM1-BD1 (Homo sapiens (Human), UniProt Q86U86); test: DSF selectivity profiling; assay type: binding
Procedure: as §1

p300 = p300 (Homo sapiens (Human), UniProt Q09472); test: DSF selectivity profiling; assay type: binding
Procedure: as §1

BRD7 = BRD7 (Homo sapiens (Human), UniProt Q9NPI1); test: DSF selectivity profiling; assay type: binding
Procedure: as §1

BRD4-BD1 = BRD4-BD1 (Homo sapiens (Human), UniProt O60885); test: DSF selectivity profiling; assay type: binding
Procedure: as §1

BRDT-BD1 = BRDT-BD1 (Homo sapiens (Human), UniProt Q58F21); test: DSF selectivity profiling; assay type: binding
Procedure: as §1

PBRM1-BD6 = PBRM1-BD6 (Homo sapiens (Human), UniProt Q86U86); test: DSF selectivity profiling; assay type: binding
Procedure: as §1

TRIM33A = TRIM33A (Homo sapiens (Human), UniProt Q9UPN9); test: DSF selectivity profiling; assay type: binding
Procedure: as §1

PBRM1-BD3 = PBRM1-BD3 (Homo sapiens (Human), UniProt Q86U86); test: DSF selectivity profiling; assay type: binding
Procedure: as §1

CECR2 = CECR2 (Homo sapiens (Human), UniProt Q9BXF3); test: DSF selectivity profiling; assay type: binding
Procedure: as §1

BRD4-BD2 = BRD4-BD2 (Homo sapiens (Human), UniProt O60885); test: DSF selectivity profiling; assay type: binding
Procedure: as §1

PC3 cells = test: Cell viability assay (CellTiter-Glo); assay type: cell-based, human; conditions: 10, 1 and 0.1 μM
Procedure: (§2) Cell Viability Assays. Cells were seeded in a 96-well plate and incubated for 12-24 h prior to initial treatment. The number of cells per well was chosen empirically based on cell growth rates (LNCaP-5,000 cells/well, PC3 and RWPE-1-3,000 cells per well, HEK293T-1,000 cells/well). Cells were treated with either DMSO control or serial dilutions of inhibitors and media with compound was refreshed every 48 h.

SMARCA2 [9] = target: T3, SMARCA2; test: Isothermal titration calorimetry (ITC); assay type: binding; conditions: NB = did not bind
Procedure: as §3

ASH1L = ASH1L (Homo sapiens (Human), UniProt Q9NR48); test: DSF selectivity profiling; assay type: binding
Procedure: as §1

[10] = test system: other tested bromodomains; test: DSF selectivity panel of 22 bromodomains; assay type: binding, human; conditions: bromodomains other than PBRM1-BD2, -BD3, -BD5
Procedure: as §1

SMARCA4 [11] = target: T4, SMARCA4; test: Isothermal titration calorimetry (ITC); assay type: binding; conditions: NB = did not bind
Procedure: as §3

[12] = Solubility at concentrations tested in the AlphaScreen assay
Procedure: AlphaScreen. […] All reagents were diluted in Epigenetic Buffer (5×), 2 μM TCEP, and 0.5% v/v Tween-20. The assay used a final volume of 40 μL. Stock solutions of inhibitors in DMSO were made at eight different concentrations (100 mM, 10 mM, 1 mM, 300 μM, 100 μM, 30 μM, 10 μM, 3 μM). 0.4 μL of inhibitor DMSO stocks were further diluted to 10 μL in the buffer. […] The mixture (40 μL) was further incubated for 1 h in a dark room and the luminescence was read on a BioTek Cytation5 Imaging Reader using an AlphaScreen detection filter cube. Data was plotted in GraphPad Prism using non-linear regression dose-response three variable slopes.

RWPE-1 cells = test: Cell viability assay (CellTiter-Glo); assay type: cell-based, human; conditions: 10, 1 and 0.1 μM
Procedure: as §2

HEK293T cells = test: Cell viability assay (CellTiter-Glo); assay type: cell-based, human; conditions: dose curve
Procedure: as §2

T1 sequence (Q86U86 177-287): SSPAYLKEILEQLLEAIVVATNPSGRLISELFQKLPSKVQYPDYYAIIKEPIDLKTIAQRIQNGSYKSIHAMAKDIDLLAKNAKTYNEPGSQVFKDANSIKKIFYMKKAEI
CECR2, sequence (Q9BXF3 434-538): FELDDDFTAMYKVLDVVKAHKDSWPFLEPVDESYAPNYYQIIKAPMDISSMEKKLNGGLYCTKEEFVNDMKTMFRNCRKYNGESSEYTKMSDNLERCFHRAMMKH
BRD2-BD2, sequence (P25440 344-453): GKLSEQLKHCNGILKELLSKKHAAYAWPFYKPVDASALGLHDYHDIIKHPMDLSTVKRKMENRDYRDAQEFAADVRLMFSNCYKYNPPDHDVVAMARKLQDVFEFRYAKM
T4 sequence (P51532 1453-1564): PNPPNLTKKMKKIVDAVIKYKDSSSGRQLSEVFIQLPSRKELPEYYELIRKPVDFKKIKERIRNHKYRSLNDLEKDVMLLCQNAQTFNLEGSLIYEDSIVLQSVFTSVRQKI
PCAF, sequence (Q92831 723-827): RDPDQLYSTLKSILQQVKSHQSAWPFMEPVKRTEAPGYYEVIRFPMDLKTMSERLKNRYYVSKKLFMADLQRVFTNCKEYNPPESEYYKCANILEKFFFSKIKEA
TRIM33A, sequence (Q9UPN9 957-1080): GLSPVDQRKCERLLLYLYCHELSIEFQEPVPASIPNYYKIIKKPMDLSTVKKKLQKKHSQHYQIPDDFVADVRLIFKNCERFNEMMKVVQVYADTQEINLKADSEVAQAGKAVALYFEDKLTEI
p300, sequence (Q09472 1049-1156): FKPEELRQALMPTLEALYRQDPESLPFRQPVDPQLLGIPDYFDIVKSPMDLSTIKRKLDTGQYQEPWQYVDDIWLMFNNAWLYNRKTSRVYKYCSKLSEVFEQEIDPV
T3 sequence (P51531 1378-1506): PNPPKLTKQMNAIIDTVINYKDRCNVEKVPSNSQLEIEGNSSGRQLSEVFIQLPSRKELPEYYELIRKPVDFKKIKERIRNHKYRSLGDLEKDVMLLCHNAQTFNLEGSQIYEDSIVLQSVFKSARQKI
BRD3-BD1, sequence (Q15059 34-140): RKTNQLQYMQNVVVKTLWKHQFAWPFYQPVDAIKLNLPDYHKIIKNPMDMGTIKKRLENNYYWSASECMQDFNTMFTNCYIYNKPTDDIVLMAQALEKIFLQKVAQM
CREBBP, sequence (Q92793 1085-1192): as the sequence (Q09472 1049-1156) above, with S47N, I73V, Y93F, S98A counted along it
BRD3-BD2, sequence (Q15059 306-415): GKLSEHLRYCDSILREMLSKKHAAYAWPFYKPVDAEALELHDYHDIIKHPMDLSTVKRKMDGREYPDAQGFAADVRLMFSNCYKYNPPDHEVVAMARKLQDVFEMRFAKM
T2 sequence (Q86U86 653-763): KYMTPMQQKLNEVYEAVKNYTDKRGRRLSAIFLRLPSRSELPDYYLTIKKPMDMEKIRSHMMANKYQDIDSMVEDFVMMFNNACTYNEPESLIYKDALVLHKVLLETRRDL
BRD7, sequence (Q9NPI1 131-235): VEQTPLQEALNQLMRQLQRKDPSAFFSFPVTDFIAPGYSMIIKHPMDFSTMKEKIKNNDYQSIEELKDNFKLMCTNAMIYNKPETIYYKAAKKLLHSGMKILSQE
PBRM1-BD3, sequence (Q86U86 381-487): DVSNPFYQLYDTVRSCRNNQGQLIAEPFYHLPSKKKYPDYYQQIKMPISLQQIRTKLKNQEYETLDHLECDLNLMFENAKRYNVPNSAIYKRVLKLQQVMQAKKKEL
PBRM1-BD4, sequence (Q86U86 518-625): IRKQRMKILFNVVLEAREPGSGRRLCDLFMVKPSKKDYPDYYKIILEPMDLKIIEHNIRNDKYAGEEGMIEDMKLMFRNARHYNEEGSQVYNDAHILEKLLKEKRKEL
PBRM1-BD1, sequence (Q86U86 41-151): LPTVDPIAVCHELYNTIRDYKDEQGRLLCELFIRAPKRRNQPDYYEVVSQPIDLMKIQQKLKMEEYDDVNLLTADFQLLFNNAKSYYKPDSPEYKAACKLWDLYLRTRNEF
PBRM1-BD6, sequence (Q86U86 769-879): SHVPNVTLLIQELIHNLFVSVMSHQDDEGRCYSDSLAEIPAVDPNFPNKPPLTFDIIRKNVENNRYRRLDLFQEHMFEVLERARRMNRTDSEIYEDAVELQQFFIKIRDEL

| SMILES | ΔTm at 100 µM (PBRM1-BD2 [4]) | PBRM1-BD5 ΔTm (PBRM1-BD5 [6]) | PBRM1-BD4 ΔTm (PBRM1-BD4) | SMARCA2 ΔTm (SMARCA2 [7]) | CREBBP ΔTm (CREBBP) | BRD3-BD2 ΔTm (BRD3-BD2) | PCAF ΔTm (PCAF) | BRD3-BD1 ΔTm (BRD3-BD1) | SMARCA4 ΔTm (SMARCA4 [8]) | BRD2-BD2 ΔTm (BRD2-BD2) | PBRM1-BD1 ΔTm (PBRM1-BD1) | p300 ΔTm (p300) | BRD7 ΔTm (BRD7) | BRD4-BD1 ΔTm (BRD4-BD1) | BRDT-BD1 ΔTm (BRDT-BD1) | TRIM33A ΔTm (TRIM33A) | CECR2 ΔTm (CECR2) | BRD4-BD2 ΔTm (BRD4-BD2) | growth inhibition of PC3 cells (PC3 cells) | ASH1L ΔTm (ASH1L) | other results |
| --- | --- | --- | --- | --- | --- | --- | --- | --- | --- | --- | --- | --- | --- | --- | --- | --- | --- | --- | --- | --- | --- |
| O=C1NC(c2c(F)cccc2Cl)Nc2ccccc21 (stereo not drawn) [Compound 5, 2-(2-Chloro-6-fluorophenyl)-2,3-dihydroquinazolin-4(1H)-one] | 1 ± 0.2 °C |  |  |  |  |  |  |  |  |  |  |  |  |  |  |  |  |  |  |  | IC50 (PBRM1-BD2 [1]): 4.2 ± 1.3 µM; Kd (PBRM1-BD2 [2]): 18.4 µM; Kd (PBRM1-BD2 [3]): 50 µM; Kd (PBRM1-BD2 [3]; NMR titration, chemical shift perturbations vs fragment concentration, read-out: Kd): 45.3 ± 8.1 µM; Kd (PBRM1-BD5 [5]): 179 µM |
| CCC(/C=C1\CCn2c1nc(=O)c1c(Cl)cccc12)CC [Compound 7, (E)-6-Chloro-3-(2-ethylbutylidene)-2,3-dihydropyrrolo[1,2-a]quinazolin-5(1H)-one, reference compound] | 7.7 °C | 11.0 °C | 3.9 °C | 3.0 °C | −0.7 °C | 0.4 °C | 0.4 °C | −0.3 °C | 3.1 °C | 0.6 °C | −0.9 °C | −0.5 °C | 0.4 °C | −0.2 °C | −0.8 °C | 0.3 °C | −0.9 °C | −1.1 °C | more significant inhibition of PBRM1-independent prostate cancer cell line PC3 |  | PBRM1-BD6 ΔTm (PBRM1-BD6): −1.5 °C; PBRM1-BD3 ΔTm (PBRM1-BD3): 2.8 °C; PBRM1-BD2 ΔTm (PBRM1-BD2 [4]): > 7.5 °C |
| Cc1ccccc1C1NC(=O)c2c(Cl)cccc2N1 (stereo not drawn) [Compound 15, 5-Chloro-2-(2-methylphenyl)-2,3-dihydroquinazolin-4(1H)-one] |  |  |  |  | 0.5 °C | 0.4 °C | 0.5 °C | 0.3 °C | did not exhibit detectable thermal stabilization or binding affinity | 0.6 °C |  | 0.2 °C | 0.2 °C | 0.1 °C | −0.7 °C | 0.8 °C | −0.5 °C | −3.3 °C |  | −0.6 °C | Kd SMARCA2 (SMARCA2 [9]): did not exhibit detectable thermal stabilization or binding affinity; thermal stabilization against other tested bromodomains [10]: < 1 °C; Kd SMARCA4 (SMARCA4 [11]): did not exhibit detectable thermal stabilization or binding affinity |
| Cc1cc(C)c(C2NC(=O)c3c(Cl)cccc3N2)c(C)c1 (stereo not drawn) [Compound 22, 5-Chloro-2-(2,4,6-trimethylphenyl)-2,3-dihydroquinazolin-4(1H)-one] |  |  |  |  |  |  |  |  |  |  |  |  |  |  |  |  |  |  |  |  | solubility in the AlphaScreen assay [12]: solubility issues |
| Cc1cccc(C2NC(=O)c3c(Cl)cccc3N2)c1C (stereo not drawn) [Compound 25, 5-Chloro-2-(2,3-dimethylphenyl)-2,3-dihydroquinazolin-4(1H)-one] |  |  |  | 0.0 °C | 0.6 °C | 0.4 °C | 0.1 °C | 0.4 °C |  | 0.2 °C |  | 0.6 °C | 0.0 °C | 0.6 °C | 0.1 °C | 0.3 °C | 0.8 °C | −4.2 °C | also inhibits the PC3, RWPE1, and HEK293T cells similarly | −0.8 °C | growth inhibition of RWPE1 cells (RWPE-1 cells): also inhibits the PC3, RWPE1, and HEK293T cells similarly; growth inhibition of HEK293T cells (HEK293T cells): also inhibits the PC3, RWPE1, and HEK293T cells similarly |
| Cc1cccc(C2NC(=O)c3c(Br)cccc3N2)c1 (stereo not drawn) [Compound 34, 5-Bromo-2-(3-methylphenyl)-2,3-dihydroquinazolin-4(1H)-one] | > 6.2 °C | ~1.5 °C | 0.2 °C | 0.3 °C | −0.2 °C | 0.5 °C | 0.6 °C | 0.4 °C | −0.2 °C | 0.5 °C | 1.4 °C | −0.1 °C | −0.4 °C | 0.3 °C | −0.4 °C | 0.1 °C | −0.6 °C | −1.1 °C | do not inhibit the growth of PC3 and RWPE1 at tested concentrations | −0.4 °C | PBRM1-BD6 ΔTm (PBRM1-BD6): −2.4 °C; PBRM1-BD3 ΔTm (PBRM1-BD3): 0.6 °C; PBRM1-BD2 ΔTm (PBRM1-BD2 [4]): 6.4 °C and 6.4 ± 0.2 °C; growth inhibition of RWPE1 cells (RWPE-1 cells): do not inhibit the growth of PC3 and RWPE1 at tested concentrations |

Source: US20240190828A1, “Small Molecule Inhibitors of PBRM1-BD2” (The Medical College of Wisconsin, Inc., priority 2021, published 2024)
